From patent US20140088000A1, “Leptin Rescues Neurons from Alzheimer's Disease Related Pathways Triggered by Lipid Burden” (Neurotez, Inc., priority 2012, published 2014)

Legend:
[1] = tested on: AMP-activated protein kinase (AMPK); experiment: AMPK activity assay in lysates of treated RA-SY5Y cells (CycLex kit, Compound C-sensitive kinase activity); assay type: cell-based, human; details: 6 h, FIG. 2A
Experimental: (§1) RA-SY5Y were treated with Leptin (100 ng/ml) in the presence of ceramide (25 μM), cholesterol (27.5 μg/mL), oleic acid (30 μg/mL) or vehicle (MβCD—675 μg/mL; or DMSO—0.125%) for 6 h, and then harvested by scraping. Preparation of whole cell lysates from cell pellets was performed as described previously (32).
AMPK activity in RA-SY5Y cell lysates was determined using the CycLex AMPK Kinase Assay Kit (MBL International; Woburn, Mass.), as previously described (33, 34). Briefly, “relative AMPK activity”, hereafter referred to as “AMPK activity”, is defined as Compound C-sensitive protein kinase activity in cell lysates. […] Lysates were incubated in the presence or absence of 10 μM Compound C, and protein kinase activity determined by measuring phosphorylation of the Insulin Receptor Substrate-I (IRS-1) through immunoassay and conversion of a chromogenic substrate at an absorbance of 450 nm (Ai50). […]
We have previously shown that Leptin regulates AD pathways via activation of the cellular energy sensors, AMP-activated protein kinase (AMPK) and the sirtuins (SIRT) in neuronal cells (35, 36). To this end, we determined whether Leptin has the ability to attenuate these effects on cellular energetics in an acute model of metabolic stress (FIG. 2). […]

tau = experiment: Phospho-tau (pThr231, pSer396) and total tau ELISA in RA-SY5Y lysates; assay type: cell-based, human; details: 6 h, FIG. 3; for effect of lipid insult on tau phosphorylation (pTau231, pTau396): no Leptin, normalized to total tau
Experimental: as §1
Aβ(1-40) levels in cell culture media from SY5YAPP751 cells treated for 18 h with the aforementioned metabolic insults in the presence or absence of Leptin, were determined using the Human βAmyloid 1-40 ELISA kit (Invitrogen; Carlsbad, Calif.), and phospho- and total tau levels in RASY5Y lysates were determined using the Human Tau pSer396, pThr231 and Total Tau ELISA kits (Invitrogen) according to manufacturer's specific instructions. Aβ(1-40), phosho- and total tau levels were calculated from a standard curve developed with OD at 450 nm using 8 serial dilutions of known concentration.
Metabolic stress has been linked to the activation of AD pathological pathways, with lipids known to play an important role (21-23). We therefore investigated the extent to which lipids can induce hyperphosphorylation of tau (FIG. 3) and AP production (FIG. 4) in neuronal cells, and determined whether Leptin could prevent these effects. Utilizing similar lipid doses as previous experiments, RA-SY5Y were treated for 6 h with Leptin (100 ng/mL) or control in the presence or absence of ceramide, cholesterol or oleic acid, and phosphorylation of tau at two different epitopes, pTau231 (FIG. 3A) or pTau396 (FIG. 3B), as well as total tau measured by ELISA.

[2] = mice having mutations on the ob gene, administration of leptin; cited from earlier work
Aβ = details: neurons; cited from earlier work
[3] = transgenic model of AD; cited from earlier work
RA-SY5Y cells = experiment: Cell viability assay (Cell-Titer Blue) during lipid/metabolic insult; assay type: cell-based, human
Experimental: The human neuroblastoma cell line, SH-SY5Y, was purchased from ATCC. Cell culture was performed according to manufacturer's specific guidelines. Cells were propagated in MEM containing 10% FBS. Neuronal differentiation was performed as described previously (32).
RA-SY5Y, at 2×10^4 cells/well, were seeded in 96-well microplates and treated for 48 h with a range of concentrations of MβCD, DMSO, ceramide, cholesterol or oleic acid to determine effective doses for 50-70% viability (data not shown), or in the presence of a range of concentrations of Leptin to determine effective doses to prevent cell death. Viability was assessed using the Cell-Titer Blue Viability Assay (Promega) by adding 20 μL of the reagent to each well for 4 h, and plates read by a microplate reader with fluorescence capabilities at Ex530-570 nm/Em580-620 nm. Viability was determined using a standard curve of known cell number and plotted as a percent of non-treated or vehicle control.
Doses of the lipids which decreased neuronal viability by 25-50% (Ceramide—25 μM; Cholesterol—27.5 μg/mL and Oleic Acid—30 μg/mL) after 18 h treatment (data not shown) were used to determine whether co-treatment with Leptin, an important modulator of lipid homeostasis, could attenuate the toxic effects of the insults (FIG. 1). RA-SY 5Y were treated for 18 h with either a low (10 ng/mL; gray bars) or moderate (100 ng/mL; black bars) dose of Leptin or control (white bars) in the presence or absence of ceramide, cholesterol or oleic acid, and cell viability measured. All lipid insults induced a significant (p<0.05) decrease in cell viability in the range of 35±15% when treated with control alone.

sirtuins (SIRT) = experiment: SIRT (total sirtuin) activity assay in lysates of treated RA-SY5Y cells (nicotinamide-sensitive deacetylase activity); assay type: cell-based, human; details: Leptin 100 ng/mL, 6 h, with ceramide, cholesterol or oleic acid, FIG. 2B
Experimental: as §1
“Total sirtuin”, hereafter termed “SIRT’, activity in cell lysates was determined using the HDAC Fluorimetric Cellular Activity Assay Kit (Enzo Life Sciences; Plymouth Meeting, Pa.), according to manufacturer's specified guidelines. Briefly, SIRT activity is defined as nicotinamide-sensitive deacetylase (class III HDAC) activity in cell lysates. 5 mM nicotinamide was identified by the manufacturer as a dose in which there was no further reduction in deacetylase activity upon increasing concentration. RA-SY5Y cell lysates were incubated in the presence or absence of 5 mM nicotinamide, and SIRT activity determined by adding the Flour de Lys Substrate for deacetylation followed by exposure to the Fluor de Lys Developer to generate a fluorescent signal for detection using a fluorimeter (EX−350-380 nm/Em440-460 nm). Normalized SIRT activity was measured in units of fluorescence intensity (Fi) and defined as: (Filysate−Filysate+nicotinamide)/μg proteinlysate. […]

Aβ(1-40) = experiment: Extracellular Aβ(1-40) ELISA in culture media of SY5Y cells stably over-expressing human APP751; assay type: cell-based; details: Leptin 100 ng/mL, 18 h, SY5Y APP751, with ceramide, cholesterol or oleic acid; FIG. 4
Experimental: To generate SY5Y stably over-expressing amyloid precursor protein (APP), cells were transfected with a mammalian expression vector encoding the 751 amino acid isoform of human APP (APP751—Accession #NM 201413) (Origene Technologies; Rockville, Md.) using the FuOENE HD transfection reagent, according to manufacturer's specific instructions (Promega; Madison, Wis.). Briefly, cells were transiently transfected with APP751 or vehicle for 48 h and then switched into selection medium containing a concentration range of the antibiotic 0418 (100-600 μg/mL) to determine the optimal dose for stable selection. Selection media was changed every 3 days to remove non-viable cells. After 3 weeks, 200 μg/mL 0418 yielded distinct colonies while all vehicle-transfected cells were non-viable. […] Aβ(1-40) levels in cell culture media from SY5YAPP751 cells treated for 18 h with the aforementioned metabolic insults in the presence or absence of Leptin, were determined using the Human βAmyloid 1-40 ELISA kit (Invitrogen; Carlsbad, Calif.), and phospho- and total tau levels in RASY5Y lysates were determined using the Human Tau pSer396, pThr231 and Total Tau ELISA kits (Invitrogen) according to manufacturer's specific instructions. Aβ(1-40), phosho- and total tau levels were calculated from a standard curve developed with OD at 450 nm using 8 serial dilutions of known concentration. […]

Compound	effect of lipid insult on AMPK activity ([1]; cholesterol 27.5 μg/mL, no Leptin)	effect of lipid insult on tau phosphorylation (pTau231, pTau396) (tau)	reduction of body weight [2] [%]	amount of Aβ secreted into the medium (Aβ)	AMPK activity under lipid insult with Leptin ([1]; Leptin 100 ng/mL, with ceramide, cholesterol or oleic acid)	cognitive performance [3]	tau phosphorylation and Aβ production [3]	cell viability under lipid insult, low dose Leptin (RA-SY5Y cells; Leptin 10 ng/mL, 18 h, with ceramide, cholesterol or oleic acid, FIG. 1)	cell viability under lipid insult, moderate dose Leptin (RA-SY5Y cells; Leptin 100 ng/mL, 18 h, with ceramide, cholesterol or oleic acid, FIG. 1)	cell viability under lipid insult, high dose Leptin (RA-SY5Y cells; Leptin 1000 ng/mL, versus 100 ng/mL group, data not shown)	SIRT activity under lipid insult with Leptin (sirtuins (SIRT))	tau hyperphosphorylation under lipid insult with Leptin (tau; Leptin 100 ng/mL simultaneous treatment, oleic acid insult (far right group))	extracellular Aβ(1-40) levels under lipid insult with Leptin (Aβ(1-40))
CC(C)CCC[C@@H](C)[C@H]1CC[C@H]2[C@@H]3CC=C4C[C@@H](O)CC[C@]4(C)[C@H]3CC[C@]12C [Cholesterol, cholesterol, reference compound]	significantly (p<0.05) suppress	induced significant (p<0.05) increases in tau phosphorylation at either epitope	–	–	–	–	–	–	–	–	–	–	–
CCCCCCCC/C=C\CCCCCCCC(=O)O [Oleic Acid, oleic acid]	–	induced significant (p<0.05) increases in tau phosphorylation at either epitope	–	–	–	–	–	–	–	–	–	–	–
Leptin: recombinant human Leptin purchased from Sigma-Aldrich; adipocyte-derived helical protein hormone	–	–	30	reduces the amount of Aβ secreted into the medium in a time- and dose-dependent fashion	significantly (p<0.05) boost both AMPK and SIRT activity in response to all lipid insults	improves cognitive performance	reduces both tau phosphorylation and Aβ production	significantly (p<0.05) improve viability only in response to the cholesterol insult	significantly (p<0.05) improved viability in response to all challenges	not significantly (p>0.05) different from the moderate group's viability	significantly (p<0.05) boost both AMPK and SIRT activity in response to all lipid insults, with the exception of ceramide for SIRT	significantly (p<0.05) prevented this hyperphosphorylation	significantly (p<0.05) reduced Aβ(1-40) levels as similar to control
